Measured values taken from patent US6365584B1, “Arylysulphonamide-substituted benzimidazoles having tryptase-inhibiting activity” (Boehringer Ingelheim Pharma KG, priority 1999, dated 2002).
Where a name gives a salt, the structure may show the parent alone.

Molecular target: T1, rh beta tryptase (Homo sapiens, UniProt Q15661)
T1 construct: purchased Promega
Assay: tryptase inhibition test (cleavage of N-p-tosyl-Gly-Pro-Lys-para-nitroaniline, p-nitroaniline measured at 405 nm)
Format: biochemical
Conditions: Tris HCl buffer pH 7.4 with calcium and heparin; substrate 0.6 mM; 5 min pre-incubation, 5 min incubation at 37° C.; enzyme activity 0.91 U/ml
Description: The compounds according to the invention are characterised by their tryptase-inhibiting activity. This ability to inhibit tryptase was investigated using the test described below. The measurement is carried out in Tris HCl buffer (100 mM), which additionally contains calcium (5 mM) and heparin (100 mg/ml), at pH 7.4. The standard used is rh beta tryptase which may be obtained commercially from Promega, for example. The substrate used is N-p-tosyl-Gly-Pro-Lys-para-nitroaniline in a concentration of 0.6 mM. The substrate is digested with tryptase to form p-nitroaniline which can be measured at 405 nm. Usually, an incubation period of 5 minutes and an incubation temperature of 37° C. are chosen. The enzyme activity used is 0.91 U/ml. The measurements are carried out in an Autoanalyser (CobasBio) made by Hofmann LaRoche. The potential inhibitory substances are used in concentrations of 10 μM in the screening, the inhibition of the tryptase being given in percent. The IC50 is determined at over 70% inhibition (concentration at which 50% of the enzyme activity is inhibited). After 5 minutes' pre-incubation of the potential inhibitory substances, the substrate is added to start the reaction, the formation of p-nitroaniline being taken as a measurement of the enzyme activity after 5 minutes, after testing the linearity.
The data obtained after the above test has been carried out (IC50 values) can be found in Table 3.

T1 sequence (Q15661 31-275): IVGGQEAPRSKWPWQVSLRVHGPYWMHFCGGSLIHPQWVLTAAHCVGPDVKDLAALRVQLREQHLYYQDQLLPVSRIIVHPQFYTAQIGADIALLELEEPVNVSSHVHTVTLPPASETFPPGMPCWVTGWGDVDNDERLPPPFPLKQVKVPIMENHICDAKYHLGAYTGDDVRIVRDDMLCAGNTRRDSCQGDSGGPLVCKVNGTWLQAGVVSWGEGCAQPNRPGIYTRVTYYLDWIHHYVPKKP

IC50 [nM]	Compound
27	CCN(CC)CCN(c1ccc2c(c1)nc(CCc1ccc(C(=N)N)cc1)n2C)S(=O)(=O)c1cccc2ccccc12 [Example 28, 1-methyl-2-[2-(4-amidino-phenyl)-ethyl]-5-[N-(2-diethyl-aminoethyl)-naphth-1-yl-sulphonylamino]-benzimidazole]
144	Cn1c(CCc2ccc(C(=N)N)cc2)nc2cc(N(CC(=O)N3CCNCC3)S(=O)(=O)c3ccc4ccccc4c3)ccc21 [Example 48, 1-Methyl-2-[2-(4-amidino-phenyl)-ethyl]-5-[N-(piperazin-1-yl-carbonylmethyl)-naphth-2-ylsulphonylamino]-benzimidazole]
70.3	Cn1c(CCc2ccc(C(=N)N)cc2)nc2cc(N(CCN3CCOCC3)S(=O)(=O)c3ccc4ccccc4c3)ccc21 [Example 47, 1-Methyl-2-[2-(4-amidino-phenyl)-ethyl]-5-[N-(2-morpholinoethyl)-naphth-2-yl-sulphonylamino]-benzimidazole]
22	Cn1c(CCc2ccc(C(=N)N)cc2)nc2cc(N(Cc3cccnc3)S(=O)(=O)c3ccc4ccccc4c3)ccc21 [Example 45, 1-Methyl-2-[2-(4-amidino-phenyl)-ethyl]-5-[N-(pyrid-3-yl-methyl)-naphth-2-ylsulphonyl-amino]-benzimidazole;]
215	Cn1c(CCc2ccc(C(=N)N)cc2)nc2cc(N(CC(=O)N3CCN(Cc4ccccc4)CC3)S(=O)(=O)c3ccc4ccccc4c3)ccc21 [Example 50, 1-Methyl-2-[2-(4-amidino-phenyl)-ethyl]-5-[N-(4′-benzyl-piperazin-1-yl-carbonylmethyl)-naphth-2-ylsulphonylamino]-benzimidazole]
30	Cn1c(CCc2ccc(C(=N)N)cc2)nc2cc(N(CC(=O)N3CCC(Cc4ccccc4)CC3)S(=O)(=O)c3ccc4ccccc4c3)ccc21 [Example 46, 1-Methyl-2-[2-(4-amidino-phenyl)-ethyl]-5-[N-(4′-benzyl-piperid-1-yl-carbonylmethyl)-naphth-2-ylsulphonylamino]-benzimidazole]
22	Cn1c(CCc2ccc(C(=N)N)cc2)nc2cc(N(Cc3ccccn3)S(=O)(=O)c3ccc4ccccc4c3)ccc21 [Example 44, 1-Methyl-2-[2-(4-amidino-phenyl)-ethyl]-5-[N-(pyrid-2-yl-methyl)-naphth-2-ylsulphonyl-amino]-benzimidazole;]
43	Cn1c(CCc2ccc(C(=N)N)cc2)nc2cc(N(CCN3CCCC3)S(=O)(=O)c3ccccc3)ccc21 [Example 34, 1-methyl-2-[2-(4-amidino-phenyl)-ethyl]-5-[N-(2-pyrrolidin-1-ylethyl)-benzene-sulphonylamino]-benzimidazole]
186	Cn1c(CCc2ccc(C(=N)N)cc2)nc2cc(N(CC(=O)N3CCN(c4ccncc4)CC3)S(=O)(=O)c3ccc4ccccc4c3)ccc21 [Example 49, 1-Methyl-2-[2-(4-amidino-phenyl)-ethyl]-5-[N-(4′-pyrid-4″- yl-piperazin-1-yl-carbonyl-methyl)-naphth-2-ylsulphonyl-amino]-benzimidazole]

More lines, now with the values behind:

Compound	IC50 [nM]
CN(C)c1ccc(CN(c2ccc3c(c2)nc(CCc2ccc(C(=N)N)cc2)n3C)S(=O)(=O)c2ccccc2)cc1 [Example 4, N-{2-[2-(4-amidinophenyl)-ethyl]-1-methyl-benzimidazol-5-yl}-N-(4-dimethylaminobenzyl)-(benzenesulphonamide)-dihydrochloride]	123
Cn1c(CCc2ccc(C(=N)N)cc2)nc2cc(N(C3CCNCC3)S(=O)(=O)c3ccccc3)ccc21 [Example 11, 1-methyl-2-[2-(4-amidino-phenyl)-ethyl]-5-[N-(4-piperidinyl)-benzenesulphonyl-amino]-benzimidazole]	90
CCN(CC)CCN(c1ccc2c(c1)nc(CCc1ccc(C(=N)N)cc1)n2CC1CCCO1)S(=O)(=O)c1ccccc1 (stereo not shown) [Example 27, 1-(2-tetrahydrofurylmlethyl)-2-[2-(4-amidinophenyl)-ethyl]-5-[N-(2-diethylaminoethyl)-benzenesulphonylamino]-benzimidazole]	273
CCN(CC)CCN(c1ccc2c(c1)nc(CCc1ccc(C(=N)N)cc1)n2CCCO)S(=O)(=O)c1ccccc1 [Example 19, 1-(3-hydroxypropyl)-2-[2-(4-amidinophenyl)-ethyl]-5-[N-(2-diethylaminoethyl)-benzene-sulphonylamino]-benzimidazole]	239
CN1CCCC1CN(c1ccc2c(c1)nc(CCc1ccc(C(=N)N)cc1)n2C)S(=O)(=O)c1ccccc1 (stereo not shown) [Example 9, 1-methyl-2-[2-(4-amidino-phenyl)-ethyl]-5-[N-(1-methyl-pyrrolidin-2-yl-methyl)-benzene-sulphonyl-amino]-benzimidazole]	62
CN(C)CCCCN(c1ccc2c(c1)nc(CCc1ccc(C(=N)N)cc1)n2C)S(=O)(=O)c1ccccc1 [Example 54, 1-Methyl-2-[2-(4-amidino-phenyl)-ethyl]-5-[N-(4-dimethyl-aminobutyl)-benzenesulphonyl-amino]-benzimidazole]	27
CCN(CC)CCN(c1ccc2c(c1)nc(CCc1ccc(C(=N)N)cc1)n2C)S(=O)(=O)c1cccc2cccnc12 [Example 52, 1-Methyl-2-[2-(4-amidino-phenyl)-ethyl]-5-[N-(2-diethyl-aminoethyl)-quinol-8-yl-sulphonylamino]-benzimidazole;]	29
CCCn1c(CCc2ccc(C(=N)N)cc2)nc2cc(N(CCN(CC)CC)S(=O)(=O)c3ccccc3)ccc21 [Example 18, 1-n-propyl-2-[2-(4-amidino-phenyl)-ethyl]-5-[N-(2-diethyl-aminoethyl)-benzenesulphonyl-amino]-benzimidazole]	292
CCN(CC)CCN(c1ccc2c(c1)nc(CCc1ccc(CN)cc1)n2C)S(=O)(=O)c1ccccc1 [Example 5, N-{2-[2-(4-aminomethyl-phenyl)-ethyl]-1-methyl-benzimidazol-5-yl}-N-diethylaminoethyl-(benzenesulphonamide)-dihydrochloride]	100
CCN(CC)CCN(c1ccc2c(c1)nc(CCc1ccc(C(=N)N)cc1)n2C)S(=O)(=O)c1cccc2cnccc12 [Example 53, 1-Methyl-2-[2-(4-amidino-phenyl)-ethyl]-5-[N-(2-diethyl-aminoethyl)-isoquinol-5-yl-sulphonylamino]-benzimidazole;]	38
CCN(CC)CCN(c1ccc2c(c1)nc(CCc1ccc(C(=N)N)cc1)n2C)S(=O)(=O)c1ccccc1 [Example 2, N-{2-[2-(4-amidinophenyl)-ethyl]-1-methyl-benzimidazol-5-yl}-N-diethylaminoethyl-(benzenesulphonamide)-dihydrochloride]	25
CCN(CC)CCN(c1ccc2c(c1)nc(CCc1ccc(C(=N)N)cc1)n2CCCc1ccccc1)S(=O)(=O)c1ccccc1 [Example 25, 1-(3-phenylpropyl)-2-[2-(4-amidinophenyl)-ethyl]-5-[N-(2-diethylaminoethyl)-benzene-sulphonylamino]-benzimidazole]	412
CCCN(CCC)C1CCC(N(c2ccc3c(c2)nc(CCc2ccc(C(=N)N)cc2)n3C)S(=O)(=O)c2ccccc2)CC1 (stereo not shown) [Example 7, 1-methyl-2-[2-(4-amidino-phenyl)-ethyl]-5-[N-(4-dipropyl-amino-cyclohexanyl)-benzene-sulphonyl-amino]-benzimidazole]	109
CCN(CC)CCN(c1ccc2c(c1)nc(CCc1ccc(C(=N)N)cc1)n2CCOC)S(=O)(=O)c1ccccc1 [Example 17, 1-(2-methoxyethyl)-2-[2-(4-amidinophenyl)-ethyl]-5-[N-(2-diethylaminoethyl)-benezene-sulphonylamino]-benzimidazole]	62
CN1CCCN(C(=O)CN(c2ccc3c(c2)nc(CCc2ccc(C(=N)N)cc2)n3C)S(=O)(=O)c2ccccc2)CC1 [Example 55, 1-Methyl-2-[2-(4-amidino-phenyl)-ethyl]-5-[N-(4-methyl-1,4-diazepin-1-yl-carbonyl-methyl)-benzenesulphonyl-amino]-benzimidazole]	28
CCN(CC)CCN(c1ccc2c(c1)nc(CCc1ccc(C(=N)N)cc1)n2CCc1ccccc1)S(=O)(=O)c1ccccc1 [Example 24, 1-(2-phenylethyl)-2-[2-(4-amidinophenyl)-ethyl]-5-[N-(2-diethylaminoethyl)-benzene-sulphonylamino]-benzimidazole]	190
CN1CCC(N(c2ccc3c(c2)nc(CCc2ccc(C(=N)N)cc2)n3C)S(=O)(=O)c2ccccc2)CC1 [Example 12, 1-methyl-2-[2-(4-amidino-phenyl)-ethyl]-5-[N-(1-methyl-piperidin-4-yl)-benzene-sulphonylamino]-benzimidazole]	179
Cn1c(CCc2ccc(C(=N)N)cc2)nc2cc(N(C3CCN(Cc4ccccc4)CC3)S(=O)(=O)c3ccccc3)ccc21 [Example 13, 1-methyl-2-[2-(4-amidino-phenyl)-ethyl]-5-[N-(1-benzyl-piperidin-4-yl)-benzene-sulphonylamino]-benzimidazole]	76
CCN(CC)CCN(c1ccc2c(c1)nc(CCc1ccc(C(=N)N)cc1)n2C)S(=O)(=O)c1csc2ccccc12 [Example 43, 1-Methyl-2-[2-(4-amidino-phenyl)-ethyl]-5-[N-(2-diethyl-aminoethyl)-benzo[b]thien-3-yl-sulphonylamino]-benzimidazole]	25
